Measurements from US20220251085A1, “CYSTEINE BINDING COMPOSITIONS AND METHODS OF USE THEREOF” (University of Virginia Patent Foundation, priority 2019, published 2022).

Legend:
[1] = target: T1, human eEF-Sec (Uniprot ID P57772) (Homo sapiens, UniProt P57772); test: Competition assay: purine ligands block AHL-Pu-1 probe labeling of eEF-Sec; format: cell-based; conditions: for block of AHL-Pu-1 probe labeling of eEF-Sec (FIG. 10E) / block of AHL-Pu-1 probe labeling of eEF-Sec (FIG. 10D): ligand 4 hr, AHL-Pu-1 25 μM 1 hr; for block of AHL-Pu-1 probe labeling of eEF-Sec (FIG. 10E): 0.05 to 25 μM; for block of AHL-Pu-1 probe labeling of eEF-Sec (FIG. 10E) / block of AHL-Pu-1 probe labeling of eEF-Sec (FIG. 10D) / block of AHL-Pu-1 probe labeling of eEF-Sec: live cells; for block of AHL-Pu-1 probe labeling of eEF-Sec (FIG. 10D): 0.5 to 25 μM; for inhibition of eEF-Sec probe labeling: 10 μM ligand; for block of AHL-Pu-1 probe labeling of eEF-Sec: ligand 10 μM, AHL-Pu-1 25 μM
T1 construct: FLAG; expressed in transfected cells; host or cells: HEK293T
T1 sequence (P57772 1-596): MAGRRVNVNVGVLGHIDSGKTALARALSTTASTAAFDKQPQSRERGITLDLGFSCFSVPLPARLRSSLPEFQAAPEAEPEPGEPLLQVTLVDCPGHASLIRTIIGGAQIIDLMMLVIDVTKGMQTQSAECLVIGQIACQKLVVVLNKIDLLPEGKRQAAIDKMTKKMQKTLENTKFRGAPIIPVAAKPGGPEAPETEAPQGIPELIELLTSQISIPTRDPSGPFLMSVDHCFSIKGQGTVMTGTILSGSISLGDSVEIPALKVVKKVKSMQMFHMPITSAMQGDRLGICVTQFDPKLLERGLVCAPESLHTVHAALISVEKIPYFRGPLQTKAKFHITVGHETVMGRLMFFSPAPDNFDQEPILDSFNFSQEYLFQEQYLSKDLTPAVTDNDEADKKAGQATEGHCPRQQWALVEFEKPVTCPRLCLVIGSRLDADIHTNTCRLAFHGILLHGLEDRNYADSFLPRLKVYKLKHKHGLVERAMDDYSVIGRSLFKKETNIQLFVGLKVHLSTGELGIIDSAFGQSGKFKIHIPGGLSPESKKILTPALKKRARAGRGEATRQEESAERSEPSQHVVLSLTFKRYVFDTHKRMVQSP
Description: FIG. 8 is a schematic diagram showing the workflow of a fluorescent gel-based competition assay using an activity-based probe (ABP) of the presently disclosed subject matter and a competitive inhibitor.
Methods: HEK293T cells were grown at 37° C. in 5% CO2 until 40% confluent. Recombinant human eEF-Sec (Uniprot ID P57772) was expressed by transient transfection for 48 hours. […] Lysates were spun at 100,000×g for 45 minutes. […] Purine probe modified proteins were conjugated to rhodamine-azide by CuAAC, subjected to SDS-PAGE analysis, and detected by in-gel fluorescence scanning. Comparison of non-transfected (Mock) and transfected proteomes was used to identify the recombinant eEF-Sec purine probe-labeled band. […] Reduction in fluorescent signals from purine probe labeling was indicative of Pi ligand inhibitory activity. Mut represents eEF-Sec mutant where cysteine residue 442 is mutated to alanine (C442A).

[2] = HPLC assay for profiling solution reactivity and stability of purine fragments (probes) with amino acid mimetics; format: physicochemical; conditions: for effect of amine group at the 2 position on electrophilic character / adducts formed, based on HPLC traces / reaction kinetics compared to N9 counterparts: butanethiol; for reaction with butanethiol: cysteine mimetic, on ice 6 h; for effect of position of the halogen leaving group on reactivity: 6 position versus 2 position (Pu-3 versus Pu-5, Pu-4 versus Pu-6); for reaction kinetics compared to N9 counterparts: versus Pu-2, Pu-4, Pu-10
Description: HPLC assay for profiling solution reactivity and stability of purine fragments: The following reagents were prepared and stored on ice prior to use. 0.1 molar (M) solution of caffeine in acetonitrile, 1.0 M solution of amino acid mimetic (butanethiol—cysteine mimetic; n-butylamine—lysine mimetic; p-cresol—tyrosine mimetic; propionamide-asparagine/glutamine mimetic; butyric acid—aspartic/glutamic acid mimetic), tetramethylguanidine (TMG), 1 M acetic acid (HOAc) in acetonitrile (ACN) and 10 mM solution of purine fragment in ACN mixture. 500 μL of fragment solution were transferred to a dram vial on ice. To the mixture, 5.5 μL of TMG and 5.5 μL of respective amino acid mimetic were added and solutions were stirred on ice for 6 h. To monitor reactivity, 50 μL aliquots were removed at indicated time points and quenched with 10 μL of a 1:1 mixture of caffeine and HOAc. Samples were injected (1 μL) and analyzed by reverse-phase HPLC on a Shimadzu 1100 Series spectrometer (Shimadzu Corporation, Kyoto, Japan) with UV detection at 254 nm. Reaction progress was evaluated by monitoring consumption of starting material (purine fragment) normalized to caffeine standard. Chromatographic separation was performed using a Phenomenex Kinetex C18 column (2.6 μm, 50×4.6 mm; Phenomenex, Torrance, Calif., United States of America). Mobile phases A and B were composed of H2O+0.1% HOAc and ACN+0.1% HOAc, respectively. […] All purine fragment peak AUCs used for calculations were normalized to caffeine standard AUCs at respective time points to account for run-to-run variations by HPLC. The amount of purine fragment consumed (% starting material) was plotted as a function of time.
Discussion: An HPLC assay for determining the reactivity of the purine-based probes with mimetics of amino acid residues was performed. […] Reaction progress was monitored by monitoring the disappearance of starting material and appearance of product via HPLC.

DM93 cells = test: Live cell activity of purine probes, gel-based (CuAAC rhodamine-azide, in-gel fluorescence); conditions: for labeling profile in live cells: DM93 cells, 25 μM, 4 hours; for reactivity of N7 versus N9 tautomers / probe labeling compared to Pu-5 and Pu-6: live DM93 cells; for probe labeling compared to Pu-5 and Pu-6: 6-chloro versus 2-chloro
Description: Live Cell Activity Method: DM93 cells were grown at 37° C. in 5% CO2 until 90% confluent. Once confluent cells were washed with serum free media and treated with halogenated purine probes at a final concentration of 25 μM (unless stated) for 4 hours (unless stated). Cells were then scraped and washed 3× with cold PBS and lysed in PBS+protease inhibitor. Lysates were spun at 100,000×g for 45 minutes. Halogen probe-modified proteins in soluble fractions were visualized by conjugating rhodamine-azide using copper-catalyzed azide-alkyne cycloaddition (CuAAC; 1 hour, room temperature), subjected to SDS-PAGE, and detected by in-gel fluorescence scanning. SDS-PAGE gels were also stained with Coomassie brilliant blue to determine protein load. All samples were loaded with equivalent amounts of protein. Thus, changes in purine probe labeling is not due to loading of different proteome amounts.

[3] = test system: DM93 cells lysates (soluble fractions); test: Lysate activity of purine probes, gel-based (in-gel fluorescence); format: biochemical; conditions: for protein labeling activity in lysates: DM93 soluble fractions, 25 μM, 2 hrs, 37° C.; for reactivity of N7 versus N9 tautomers / labeling compared to AHL-Pu-5 and AHL-Pu-6: lysates; for labeling compared to AHL-Pu-5 and AHL-Pu-6: 6-chloro versus 2-chloro
Description: Lysate Activity Method: DM93 cells were grown at 37° C. in 5% CO2 until 90% confluent. Once confluent, cells were scraped and washed 3× times with cold PBS and lysed in PBS+protease inhibitor. Lysates were spun at 100,000×g for 45 minutes. Soluble fractions were treated with 25 μM of halogenated purine probes (unless stated) for 2 hrs (unless stated) at 37° C. Purine probe modified proteins were conjugated to rhodamine-azide by CuAAC, subjected to SDS-PAGE analysis, and detected by in-gel fluorescence scanning. SDS-PAGE gels were stained with Coomassie brilliant blue to determine protein load.

[4] = HPLC assay for profiling solution reactivity and stability of purine adduct fragments; format: physicochemical; conditions: for preference between nucleophiles: butanethiol versus p-cresol
Description: HPLC assay for profiling solution reactivity and stability of purine adduct fragments: The following reagents were prepared and stored on ice prior to use. 0.1 M solution of caffeine in acetonitrile, 1.0 M solution of amino acid mimetic (butanethiol, n-butylamine, p-cresol, propionamide and butyric acid), tetramethylguanidine (TMG), 1 M HOAc in ACN and 10 mM solution of purine fragment (e.g., one of the purine adducts shown in Scheme 8, above) in ACN mixture. 500 μL of fragment solution (i.e. purified Pa-1 through Pa-6) were transferred to a dram vial on ice. To the mixture, 5.5 μL of TMG and 5.5 μL of respective amino acid mimetic were added and solutions were stirred on ice for 6 h. To monitor reactivity, 50 μL aliquots were removed at indicated time points and quenched with 10 μL of a 1:1 mixture of caffeine and HOAc. Samples were injected (1 μL) and analyzed by reverse-phase HPLC on a Shimadzu 1100 Series spectrometer with UV detection at 254 nm. Reaction progress was evaluated by monitoring consumption of starting material (purine fragment) normalized to caffeine standard. Chromatographic separation was performed using a Phenomenex Kinetex C18 column (2.6 μm, 50×4.6 mm). Mobile phases A and B were composed of H2O+0.1% HOAc and ACN+0.1% HOAc, respectively. […] All purine fragment peak AUCs used for calculations were normalized to caffeine standard AUCs at respective time points to account for run-to-run variations by HPLC. The amount of purine fragment consumed (% starting material) was plotted as a function of time.

Clc1nc(Cl)c2c(ncn2Cc2ccccc2)n1 [Pi-1, 2,6-dichloro-7-benzyl-7H-purine]
block of AHL-Pu-1 probe labeling of eEF-Sec (FIG. 10E) [1]: in a concentration dependent manner | block of AHL-Pu-1 probe labeling of eEF-Sec (FIG. 10D) [1]: in a concentration dependent manner

C#CCn1cnc2nc(N)nc(Cl)c21 [Pu-7, 6-chloro-2-amino-7-(prop-2-yn-1-yl)-7H-purine]
effect of amine group at the 2 position on electrophilic character [2]: dramatically reduces the electrophilic character

C#CCn1cnc2c(Cl)nc(F)nc21 [Pu-10, 6-chloro-2-fluoro-9-(prop-2-yn-1-yl)-9H-purine]
labeling profile in live cells (DM93 cells): robust labeling profiles | adducts formed, based on HPLC traces [2]: likely form many different adducts | reaction with butanethiol [2]: react with butanethiol | protein labeling activity in lysates [3]: highest protein labeling activity

C#CCn1cnc2c(Cl)nc(SCCCC)nc21 [Pa-3, 2-(butylthio)-6-chloro-9-(prop-2-yn-1-yl)-9H-purine]
preference between nucleophiles [4]: preference for butanethiol | reactivity with nucleophiles ([4]; on ice 6 h): mild reactivity

O=[N+]([O-])c1ccc(Cn2cnc3c(Cl)nc(Cl)nc32)cc1 [Pi-6, 2,6-Dichloro-9-(4-nitrobenzyl)-9H-purine]
inhibition of eEF-Sec probe labeling [1]: loses all apparent activity

C#CCn1cnc2c(Cl)nc(N)nc21 [Pu-8, 2-Amino-6-chloro-9-(prop-2-yn-1-yl)-9H-purine]
effect of amine group at the 2 position on electrophilic character [2]: dramatically reduces the electrophilic character

O=[N+]([O-])c1ccc(Cn2cnc3nc(Cl)nc(Cl)c32)cc1 [Pi-5, 2,6-Dichloro-7-(4-nitrobenzyl)-7H-purine]
inhibition of eEF-Sec probe labeling [1]: greater than 50% | block of AHL-Pu-1 probe labeling of eEF-Sec [1]: block AHL-Pu-1 probe labeling (25 μM) in a time dependent and concentration dependent manner | block of AHL-Pu-1 probe labeling of eEF-Sec (FIG. 10E) [1]: in a concentration dependent manner | block of AHL-Pu-1 probe labeling of eEF-Sec (FIG. 10D) [1]: in a concentration dependent manner

C#CCn1cnc2ncnc(Cl)c21 [Pu-3, 6-Chloro-7-(prop-2-yn-1-yl)-7H-purine]
reactivity of N7 versus N9 tautomers (DM93 cells): more reactive | probe labeling compared to Pu-5 and Pu-6 (DM93 cells): Enhanced probe labeling | effect of position of the halogen leaving group on reactivity [2]: the 6 position enhances reactivity | reaction kinetics compared to N9 counterparts [2]: accelerated reaction kinetics | reaction with butanethiol [2]: react with butanethiol | reactivity of N7 versus N9 tautomers [3]: more reactive | labeling compared to AHL-Pu-5 and AHL-Pu-6 [3]: Increased labeling

C#CCn1cnc2c(SCCCC)nc(F)nc21 [Pa-6, 6-(butylthio)-2-fluoro-9-(prop-2-yn-1-yl)-9H-purine]
preference between nucleophiles [4]: equivalent reactivity against butanethiol and p-cresol | reactivity with nucleophiles ([4]; on ice 6 h): mild reactivity

C#CCn1cnc2nc(F)nc(Cl)c21 [Pu-9, 6-chloro-2-fluoro-7-(prop-2-yn-1-yl)-7H-purine]
labeling profile in live cells (DM93 cells): robust labeling profiles | reactivity of N7 versus N9 tautomers (DM93 cells): more reactive | adducts formed, based on HPLC traces [2]: likely form many different adducts | reaction kinetics compared to N9 counterparts [2]: accelerated reaction kinetics | reaction with butanethiol [2]: react with butanethiol | protein labeling activity in lysates [3]: highest protein labeling activity | reactivity of N7 versus N9 tautomers [3]: more reactive

C#CCn1cnc2c(SCCCC)nc(Cl)nc21 [Pa-4, 6-(butylthio)-2-chloro-9-(prop-2-yn-1-yl)-9H-purine]
reactivity against nucleophiles, N9 versus N7 tautomer ([4]; Pa-4 versus Pa-1, butanethiol): appears to be more reactive against nucleophiles | reactivity of 2-halogen, 6-substituted versus 6-halogen, 2-substituted ([4]; Pa-4 versus Pa-3, butanethiol): higher reactivity | reactivity with nucleophiles ([4]; on ice 6 h): mild reactivity

O=S(=O)(N1CCOCC1)n1cnc2c(Cl)nc(Cl)nc21 [Pi-8, 4-((2,6-Dichloro-9H-purin-9-yl)sulfonyl)morpholine]
block of AHL-Pu-1 probe labeling of eEF-Sec [1]: block AHL-Pu-1 probe labeling (25 μM) in a time dependent and concentration dependent manner | block of AHL-Pu-1 probe labeling of eEF-Sec (FIG. 10D) [1]: in a concentration dependent manner

C#CCn1cnc2nc(Cl)nc(SCCCC)c21 [Pa-1, 6-(Butylthio)-2-chloro-7-(prop-2-yn-1-yl)-7H-purine]
reactivity with butanethiol or p-cresol ([4]; on ice 6 h): little reactivity

C#CCn1cnc2c(Cl)ncnc21 [Pu-4, 6-Chloro-9-(prop-2-yn-1-yl)-9H-purine]
probe labeling compared to Pu-5 and Pu-6 (DM93 cells): Enhanced probe labeling | effect of position of the halogen leaving group on reactivity [2]: the 6 position enhances reactivity | labeling compared to AHL-Pu-5 and AHL-Pu-6 [3]: Increased labeling
